Read-outs that look alike come from different tables or passages of the source.
Tests used:
[1] = tested on: Plasmodium falciparum Dd2 asexual blood stage parasites; assay: microbe, parasite or virus in culture; set-up: species or system Plasmodium falciparum Dd2 in human erythrocytes; single determination (one 11-point concentration-response curve); conditions: Plasmodium falciparum, DD2, Erythrocyte, 72 h; read-out: AC50
in vitro [2] = conditions: human, hepg2 cells
in vitro [3] = conditions: human, HepG2-A16-CD81EGFP cells, uninfected
HepG2-A16-CD81EGFP cells = conditions: averaged response (percent)
[4] = tested on: luciferase-expressing P. berghei liver stage parasites in HepG2 cells; assay: Inhibition of liver-stage development assay (ILSDA), Method 2 (WRAIR, 96-well); type: cell-based, Plasmodium berghei; conditions: Method 2, dose response; for AC50: Plasmodium berghei, HepG2, P. berghei liver stage
[5] = tested on: P. berghei-ANKA-GFP-LucCON liver stage parasites in HepG2-A16-CD81EGFP cells; assay: P. berghei liver stage Pb-Luc assay, Method 1 (UCSD, 1536-well); type: cell-based, Plasmodium berghei; conditions: P. berghei liver stage, averaged response (percent); for Average P. berghei 1 µM response (%): the header list (r8) defines it as the 1 µM dose
[6] = tested on: P. falciparum Dd2 (clone B2) asexual blood stage parasites; assay: P. falciparum Dd2 asexual blood stage SYBR Green-I 72 h proliferation assay (qHTS); type: cell-based, Plasmodium falciparum; conditions: log10 of AC50 in M; for Pf ABS Log AC50 (M): averaged P. falciparum asexual blood stage potency
in vitro [7] = conditions: human, hepg2-a16-cd81egfp cells, % viability
[8] = HepG2, the header list (r10) describes it as the 1 µM dose

Cc1nn2c(c1-c1ccccc1[S+](C)(=O)[O-])N(Cc1ccc(C(=O)O)s1)CCC2 [NCGC00420344-01]
AC50 [1]: 7.69 µM
CC50 at 48 h (in vitro [2]): > 57 µM

COCC(=O)N[C@H]1C[C@@H](Cc2cc(-c3ccc(OC)cc3)on2)C1(C)C [NCGC00395450-01]
CC50 at 48 h (in vitro [2]): > 57 µM

CCN1CCN(c2cc(C)c3cc(NC(=O)c4cccc(Cl)c4)ccc3n2)CC1 [NCGC00103820-01]
AC50 [1]: 4.73 µM
CC50 at 48 h (in vitro [2]): > 57 µM

Cc1noc(C)c1-c1cc2c(cc(-c3ccccc3)n2C)c(-c2ccnn2C)n1 [NCGC00417162-01]
AC50 [1]: 8.63 µM
CC50 at 48 h (in vitro [2]): > 57 µM

O=C(Nc1ccc(Cl)cc1)c1nc2c(o1)CCN(Cc1ccc(F)cc1F)CC2 [NCGC00413332-01]
CC50 at 48 h (in vitro [2]): > 57 µM

CCCn1c2c(c(=N)c3c1CCC3)CCC2 [MLS001047442-01]
AC50 [1]: 13.3 µM
viability at 48 h (in vitro [3]): 99.2%
viability at 48 h, 1 µM (in vitro [3]): 99.2%
CC50 at 48 h (in vitro [2]): > 57 µM

Cc1nn2c(c1-c1ccccc1OCc1ccccc1)N(Cc1ccccc1)CCC2 [NCGC00420471-01]
AC50 [1]: 15.3 µM
CC50 at 48 h (in vitro [2]): > 57 µM

O=c1[nH]c(N2CCOCC2)nc2c1CCN(Cc1ccc(Cl)cc1F)CC2 [NCGC00440653]
Average HepG2 3 µM response( %) (HepG2-A16-CD81EGFP cells; HepG2, 3 µM dose): 102%
Average HepG2 3 µM response( %) (HepG2-A16-CD81EGFP cells; [8]): 102%
Activity direction (Decrease / Inactive) ([4]; P. berghei liver stage): Decrease
AC50 ([4]; read-out: AC50): 112 nM
AC50 ([4]; read-out: Log AC50 (converted)): 112 nM
Average P. berghei 3 µM response( %) [5]: 41%
Average P. berghei 1 µM response (%) [5]: 39%
AC50 ([6]; Plasmodium falciparum, DD2, averaged P. falciparum asexual blood stage potency, read-out: Pf ABS Log AC50 (converted)): 3.35 µM

Cc1nn2c(c1-c1ccccc1C(C)C)N(CCC(C)C)CCC2 [NCGC00420439-01]
AC50 [1]: 2.17 µM
CC50 at 48 h (in vitro [2]): > 57 µM

Cc1cc(N2CCC(N(C)C3CCCC3)CC2)nc2cc(O)ccc12 [MLS000118330-01]
AC50 [1]: 5.96 µM
CC50 at 48 h (in vitro [2]): > 57 µM

Cc1nn2c(c1-c1ccccc1Oc1ccccc1)N(Cc1cccc(O)c1)CCC2 [NCGC00420295-01]
AC50 [1]: 10.9 µM
CC50 at 48 h (in vitro [2]): > 57 µM

COc1ccc(-c2cc3nc4c(c(=O)n3[nH]2)CN(C(=O)c2ccc(Cc3c(C)noc3C)o2)CC4)cc1 [NCGC00440331-01]
CC50 at 48 h (in vitro [2]): 0.685 µM

O=c1c2nc(-c3cccc(O)c3)ccc2ncn1C1CC1 [NCGC00414734-01]
CC50 at 48 h (in vitro [2]): > 57 µM

COCCNc1ncccc1-c1noc([C@@H]2CCCN2Cc2ccccn2)n1 [NCGC00394837-01]
AC50 [1]: 7.69 µM
CC50 at 48 h (in vitro [2]): > 57 µM

C=C(C)CSc1nc2sc3c(c2c(=O)n1-c1ccc(C)cc1)CCN(C)C3 [MLS001173676]
Average HepG2 3 µM response( %) (HepG2-A16-CD81EGFP cells; HepG2, 3 µM dose): 87%
Average HepG2 3 µM response( %) (HepG2-A16-CD81EGFP cells; [8]): 97%
Average P. berghei 3 µM response( %) [5]: 59%
Average P. berghei 1 µM response (%) [5]: 87%
viability at 3 µM (in vitro [7]): 86.9%
Pf ABS Log AC50 (M) [6]: -5.800 M

O=C(c1ccc(-c2ncc3cnc(-c4cccc(F)c4)cn23)cc1)N1CCc2cccnc21 [NCGC00414026-01]
CC50 at 48 h (in vitro [2]): > 57 µM

CN(C)c1ccc2ncc(Nc3ccc(Oc4ccccc4)cc3)n2n1 [NCGC00412534-01]
AC50 [1]: 8.63 µM
CC50 at 48 h (in vitro [2]): > 57 µM

COc1cc(C)cc(CN2CCC(Cc3ccccc3)CC2)c1O [MLS001178265]
Average HepG2 3 µM response( %) (HepG2-A16-CD81EGFP cells; HepG2, 3 µM dose): 88%
Average HepG2 3 µM response( %) (HepG2-A16-CD81EGFP cells; [8]): 97%
Average P. berghei 3 µM response( %) [5]: 102%
Average P. berghei 1 µM response (%) [5]: 89%
viability at 3 µM (in vitro [7]): 87.6%
Pf ABS Log AC50 (M) [6]: -6.137 M

O=C(CCl)Nc1ccc(Oc2cnc3ccccc3n2)cc1 [MLS000327546]
Average HepG2 3 µM response( %) (HepG2-A16-CD81EGFP cells; HepG2, 3 µM dose): 91%
Average HepG2 3 µM response( %) (HepG2-A16-CD81EGFP cells; [8]): 88%
Average P. berghei 3 µM response( %) [5]: 121%
Average P. berghei 1 µM response (%) [5]: 109%
viability at 3 µM (in vitro [7]): 90.9%
Pf ABS Log AC50 (M) [6]: -5.812 M

Cc1cc(C)n(-c2nnc(N3CCN(c4ccccc4)CC3)nn2)n1 [MLS000695202]
Average HepG2 3 µM response( %) (HepG2-A16-CD81EGFP cells; HepG2, 3 µM dose): 94%
Average HepG2 3 µM response( %) (HepG2-A16-CD81EGFP cells; [8]): 97%
Average P. berghei 3 µM response( %) [5]: 84%
Average P. berghei 1 µM response (%) [5]: 102%
viability at 3 µM (in vitro [7]): 93.9%
Pf ABS Log AC50 (M) [6]: -6.012 M

Cc1csc(Nc2ccc3c(n2)CN(Cc2ccccc2C)C(=O)CO3)n1 [NCGC00413860-01]
AC50 [1]: 19.3 µM
CC50 at 48 h (in vitro [2]): > 57 µM

Cc1cc(Nc2nc3ccccc3nc2Cl)n(-c2ccccc2C)n1 [MLS000595322]
Average HepG2 3 µM response( %) (HepG2-A16-CD81EGFP cells; HepG2, 3 µM dose): 98%
Average HepG2 3 µM response( %) (HepG2-A16-CD81EGFP cells; [8]): 93%
Average P. berghei 3 µM response( %) [5]: 93%
Average P. berghei 1 µM response (%) [5]: 114%
viability at 3 µM (in vitro [7]): 98.3%
Pf ABS Log AC50 (M) [6]: -6.062 M

Cc1nn2c(c1-c1ccccc1-c1ccccc1)N(Cc1cccc(O)c1)CCC2 [NCGC00420293-01]
AC50 [1]: 4.85 µM
CC50 at 48 h (in vitro [2]): > 57 µM

O=C(Nc1ccc(-c2csc(Nc3cccc(C(F)(F)F)c3)n2)cc1)c1cc([N+](=O)[O-])cc(C(F)(F)F)c1 [MLS000911524]
Average HepG2 3 µM response( %) (HepG2-A16-CD81EGFP cells; HepG2, 3 µM dose): 101%
Average HepG2 3 µM response( %) (HepG2-A16-CD81EGFP cells; [8]): 101%
Average P. berghei 3 µM response( %) [5]: 73%
Average P. berghei 1 µM response (%) [5]: 100%
viability at 3 µM (in vitro [7]): 101%
Pf ABS Log AC50 (M) [6]: -5.387 M

N=c1n(CCN2CCCCC2)c2ccccc2n1CC(=O)c1ccc(Cl)c(Cl)c1 [MLS001042209]
Average HepG2 3 µM response( %) (HepG2-A16-CD81EGFP cells; HepG2, 3 µM dose): 87%
Average HepG2 3 µM response( %) (HepG2-A16-CD81EGFP cells; [8]): 89%
Average P. berghei 3 µM response( %) [5]: 89%
Average P. berghei 1 µM response (%) [5]: 92%
viability at 3 µM (in vitro [7]): 87.4%
Pf ABS Log AC50 (M) [6]: -5.750 M

CCN(CC)Cc1cc2[nH]c3c4ccc(Cl)cc4ncc3c2cc1OC [MLS000757007]
Average HepG2 3 µM response( %) (HepG2-A16-CD81EGFP cells; HepG2, 3 µM dose): 101%
Average HepG2 3 µM response( %) (HepG2-A16-CD81EGFP cells; [8]): 105%
Average P. berghei 3 µM response( %) [5]: 134%
Average P. berghei 1 µM response (%) [5]: 108%
viability at 3 µM (in vitro [7]): 101%
Pf ABS Log AC50 (M) [6]: -6.700 M

Cc1cc(C)c(-c2csc(NC(=O)CCCc3nc4ccccc4c(=O)[nH]3)n2)c(C)c1 [MLS001156669]
Average HepG2 3 µM response( %) (HepG2-A16-CD81EGFP cells; HepG2, 3 µM dose): 103%
Average HepG2 3 µM response( %) (HepG2-A16-CD81EGFP cells; [8]): 99%
Average P. berghei 3 µM response( %) [5]: 12%
Average P. berghei 1 µM response (%) [5]: 72%
viability at 3 µM (in vitro [7]): 103%
Pf ABS Log AC50 (M) [6]: -5.900 M

O=C1C(Nc2ccccc2)=C/C(=N\S(=O)(=O)c2cccs2)c2ccccc21 [MLS000374486]
Average HepG2 3 µM response( %) (HepG2-A16-CD81EGFP cells; HepG2, 3 µM dose): 86%
Average HepG2 3 µM response( %) (HepG2-A16-CD81EGFP cells; [8]): 101%
Average P. berghei 3 µM response( %) [5]: 34%
Average P. berghei 1 µM response (%) [5]: 65%
viability at 3 µM (in vitro [7]): 86%
Pf ABS Log AC50 (M) [6]: -6.462 M

Cc1ccc(C)c(-n2c(-c3ccc(Br)cc3)csc2=NC(=O)c2ccccc2F)c1 [MLS000766129]
Average HepG2 3 µM response( %) (HepG2-A16-CD81EGFP cells; HepG2, 3 µM dose): 89%
Average HepG2 3 µM response( %) (HepG2-A16-CD81EGFP cells; [8]): 97%
Average P. berghei 3 µM response( %) [5]: 44%
Average P. berghei 1 µM response (%) [5]: 91%
viability at 3 µM (in vitro [7]): 89.1%
Pf ABS Log AC50 (M) [6]: -5.187 M

CCSc1nc2sc3c(c2c(=O)n1-c1ccccc1)CCN(C(C)C)C3 [MLS001173590]
Average HepG2 3 µM response( %) (HepG2-A16-CD81EGFP cells; HepG2, 3 µM dose): 93%
Average HepG2 3 µM response( %) (HepG2-A16-CD81EGFP cells; [8]): 100%
Average P. berghei 3 µM response( %) [5]: 63%
Average P. berghei 1 µM response (%) [5]: 91%
viability at 3 µM (in vitro [7]): 92.6%
Pf ABS Log AC50 (M) [6]: -6.000 M

NS(=O)(=O)c1ccc(N/N=C/c2cn(-c3ccccc3)nc2-c2cccs2)cc1 [MLS000393371]
Average HepG2 3 µM response( %) (HepG2-A16-CD81EGFP cells; HepG2, 3 µM dose): 94%
Average HepG2 3 µM response( %) (HepG2-A16-CD81EGFP cells; [8]): 91%
Average P. berghei 3 µM response( %) [5]: 24%
Average P. berghei 1 µM response (%) [5]: 69%
viability at 3 µM (in vitro [7]): 94.1%
Pf ABS Log AC50 (M) [6]: -6.762 M

COc1ccc(CN2C[C@@H](F)[C@@H](OCc3nc4cc(C)ccc4[nH]3)C2)cc1 [NCGC00393009-01]
CC50 at 48 h (in vitro [2]): > 57 µM
